Experimental data taken from patent publication EP1354200B1, “METHOD OF SCREENING FOR GPR40 LIGANDS” (priority 2000, dated 2002).

Columns and labels:
Assay type in all cases: cell-based
human GPR40 [1] = biological target: T1, human GPR40 (Homo sapiens, UniProt O14842); experiment: GAL4/Elk-1 luciferase reporter assay in CHO clones transfected with human GPR40, with and without pertussis toxin; set-up: expressed in transfected cells; host or cells: wild-type CHO cells, transient co-transfection (CMV-GPR40 + 3x-CRE-Luc); conditions: cells containing GPR40, Figure 4B
T1 sequence (O14842 whole entry, the tested form may be a part): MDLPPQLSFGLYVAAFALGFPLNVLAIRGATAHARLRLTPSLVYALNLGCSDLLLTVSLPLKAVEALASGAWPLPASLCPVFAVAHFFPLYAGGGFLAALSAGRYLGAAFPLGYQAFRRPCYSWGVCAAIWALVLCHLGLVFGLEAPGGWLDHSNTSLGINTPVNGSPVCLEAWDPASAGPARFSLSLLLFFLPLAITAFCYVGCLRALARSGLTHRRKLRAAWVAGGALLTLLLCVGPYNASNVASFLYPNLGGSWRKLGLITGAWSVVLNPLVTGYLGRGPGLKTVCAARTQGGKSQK
Excerpt: (§1) To further test the coupling of GPR40 to Gαi/Gαq a Gal4/Elk-1 reporter was used. A stable, clonal reporter line was created by transfecting CHO cells with a plasmid that contains an expression construct for GAL4/Elk-1 and a GAL4-luciferase reporter construct. A similar reporter system can now be purchased from Stratagene (under the trademark […]®). An expression construct for human GPR40 which contains a G418 resistance construct was transfected into the host CHO GAL4/Elk-1 reporter cell line (10ug plasmid DNA pCR3-GPR40) via electroporation. The cell lines were selected for with 500ug/mL G418 until all cells in the control were dead and clones were then picked. The Gal4/Elk-1 reporter can be activated through Gq or Gi. To confirm coupling via Gi, cells were treated with pertussis toxin treatment which ADP-ribosylates Gαi preventing its interaction with receptors (Bokoch et al., J. Biol. Chem 258:2072 (1983)). Pertussis toxin has no known effect on Gαq.
(§2) Host cells and those transfected with the GPR40 construct were plated in a 96-well tissue culture plate at 2000 cells/well in DMEM/F12 supplemented with 5% FBS. After 48 hours at 37°C at 5% CO2 the cells were placed in serum-free DMEM/F12 in the presence or absence of 1ug/ml pertussis toxin. […]

[2] = system: CHO GAL4/Elk-1 reporter cell line; experiment: GAL4/Elk-1 luciferase reporter assay in host CHO cells (reporter only), with and without pertussis toxin
Excerpt: as §1, §2

human GPR40 [3] = biological target: T1, human GPR40; experiment: 3X-CRE-luciferase reporter assay in CHO cells (Gs coupling); set-up: expressed in transfected cells; host or cells: wild-type CHO cells, transient co-transfection (CMV-GPR40 + 3x-CRE-Luc); conditions: CRE-Luc; cells containing reporter only and cells containing GPR40; 4 hours of treatment; Figure 3c
Experimental: Specific coupling was determined in mammalian cells using transient expression of a CRE-luciferase reporter for Gαs and stable cell-lines containing Gal4/ELK-1-luciferase reporter for Gαq/Gαi. Wild-type CHO cells were co-transfected with 3X-CRE-luciferase reporter vector and various amounts of an expression vector for GPR40. The control cells were transfected with reporter vector only. The reporter gene plasmids were produced in house but similar vectors can be purchased from Stratagene ([…]®). Cells were plated in a 24 well tissue culture plate at 1 x 10^4 cells/well in DMEM/F12 supplemented with 5% FBS. After 72 hours at 37°C, 5% CO2, the cells were transfected using the liposomal transfection reagent sold under the trademark LIPOFECTAMINE® and with the following combinations of plasmids: • A- 3x-CRE-Luc • B- 3x-CRE-Luc + CMV-GPR40 • C- 3x-CRE-Luc + CMV-Gs coupled receptor The concentration of reporter plasmid for all wells was 0.15µg/well. Concentrations of receptor plasmids were 0.5, 1.0, 5.0, 10.0 ng/well. After 24hrs Cells containing 1ng/well of receptor plasmid or no DNA control and CRE-Luc reporter were treated with fatty acid or the calcitonin which is known to act through a Gs-coupled receptor (Chakraborty, Science 251: 1078 (1991)) at concentrations indicated. […]

human GPR40 [4] = biological target: T1, human GPR40; experiment: FLIPR intracellular calcium assay in HEK-293 cells transiently expressing GPR40 (with G-protein cocktail); conditions: for pEC50 / EC50: Additional Fatty Acid Compounds
Excerpt: The Fluorometric Imaging Plate Reader (FLIPR™, Molecular Devices, UK) measures intracellular fluorescense in multi-well microplates. Where a GPCR couples to a calcium signalling pathway, the FLIPR system can be used with cells expressing the G-protein coupled receptor and containing calcium-sensitive fluorescent dyes, to monitor the intracellular calcium flux that occurs after activation of the G-coupled receptor. See, e.g., Kirk et al., J. Biomolecular Screening, 1:75 (1996).
(§3) The assays utilized a G-protein cocktail (+GPC) that contained chimeric and promiscuous G-proteins, as is known in the art of screening orphan G-protein coupled receptors.

HLTEX11 = experiment: FLIPR intracellular calcium assay in HEK-293 cells transiently expressing control 7TM receptor HLTEX11; conditions: HEK-293 cells transiently expressing HLTEX11; Figure 1
Excerpt: as §3

PGRW = experiment: FLIPR intracellular calcium assay in HEK-293 cells transiently expressing control 7TM receptor PGRW; conditions: HEK-293 cells transiently expressing PGRW; Figure 1
Excerpt: as §3

Compound	pEC50 (human GPR40 [4]; FLIPR)	other results
CCCCCCCCC#CCC#CCC#CCCCC(=O)O [5,8,11-Eicosatriynoic acid]	5.77	effect of pertussis toxin treatment on the stimulated luciferase activity (human GPR40 [1]; 1ug/ml pertussis toxin): not inhibited; luciferase activity compared to basal (human GPR40 [1]): increased; luciferase production ([2]; Figure 4B): no effect; luciferase production (human GPR40 [3]): no effect
CCCCC[C@H](O)[C@H](O)/C=C/C=C/C=C\C/C=C\CCCC(=O)O [14®, 15(S)-DiHETE]	4.63	EC50 (human GPR40 [4]; FLIPR): 23.4 µM
C#CCCCCCCCCCCCCCCCC(=O)O [17-Octadecynoic acid]	5.12	
CCCCC/C=C\C/C=C\C/C=C\C/C=C\CCCCCC(=O)O [Adrenic acid]	4.87	EC50 (human GPR40 [4]; FLIPR): 13.5 µM
CC1=C(/C=C/C(C)=C/C=C/C(C)=C/C=O)C(C)(C)CCC1 [All-trans-retinal]		Mean pEC50 of 3 expts (human GPR40 [4]; mean over experiments (n=1 or n=2 where printed), FLIPR): 4.16
CCCCC/C=C\C/C=C\C/C=C\C/C=C\CCCC(=O)O [Arachidonic acid]	5.04	
CCCCC/C=C\C/C=C\C/C=C\CCCCCCC(=O)O [Dihomo-gamma-linolenic acid]	5.14	
CC/C=C\C/C=C\C/C=C\C/C=C\C/C=C\CCCCCC(=O)O [Docosa-7Z,10Z,13Z,16Z,19Z-pentaenoic acid]	5.33	
CC/C=C\C/C=C\C/C=C\CCCCCCCCCCCC(=O)O [Docosa-13Z,16Z,19Z-trienoic acid]	5.17	
CC/C=C\C/C=C\C/C=C\C/C=C\C/C=C\CCCC(=O)O [Eicosa-5Z,8Z,11Z,14Z,17Z-pentaenoic acid]	5.17	
CCCCCCCCCCC/C=C\C/C=C\CCCC(=O)O [Eicosa-5Z,8Z-dienoic acid]	5.11	
CC/C=C\C/C=C\C/C=C\CCCCCCCCCC(=O)O [Eicosa-11Z,14Z,17Z-trienoic acid]	4.95	
CCCCC/C=C\C/C=C\CCCCCCCCCC(=O)O [Eicosa-11Z,14Z-dienoic acid]	4.97	
CCCCCCCC/C=C/CCCCCCCC(=O)O [Elaidic acid]	4.87	FLIPR response (intracellular calcium levels) (human GPR40 [4]; HEK-293 cells transiently expressing GPR40, +GPC, Figure 1): response detected; FLIPR response (HLTEX11): No response; FLIPR response (PGRW): No response
CCCCCCCC/C=C\CCCCCCCC(=O)OC[C@@H](O)COP(=O)(O)O [LPA, lysophosphatidic acid (oleoyl)]		agonist-stimulated reporter activity following pertussis toxin treatment ([2]; 1ug/ml pertussis toxin, Figures 4A, 4C): completely abolished
CCCCC/C=C\C/C=C\CCCCCCCC(=O)O [Linoleic acid]	5.02	
CCCCCCCC/C=C\C/C=C\C/C=C\CCCC(=O)O [Mean acid]	5.60	EC50 (human GPR40 [4]; FLIPR): 2.51 µM
CCC=CCC=CCC=CCC=CCC=CC/C=C\CCC(=O)O [cis-4,7,10,13,16,19-Docosahexaenoic acid]	5.79	
calcitonin		luciferase production (human GPR40 [3]): increase
